Converted amounts (≈) assume the structure as drawn.
Tests used:
Substance-P receptor [1] = target: Substance-P receptor (Cavia porcellus, UniProt P30547); test: Antagonism of the guinea pig tachykinin NK1 receptor; assay type: functional
Histamine H1 receptor [2] = target: T1, Histamine H1 receptor (Homo sapiens, UniProt P35367); assay type: functional
Cavia porcellus [3] = species: Cavia porcellus; test: Compound with maleate salt was tested for inhibition of histamine-induced skin wheal response in guinea pigs; assay type: functional
[4] = Compound was calculated log P; settings: pH 7.4
[5] = Compound was tested for its solubility at pH 7.4; assay type: physicochemical; settings: buffer
[6] = Dose-dependent inhibition of SP-induced increases in phosphatidylinositol turnover in UC11 cells; assay type: functional, cell-based; settings: Homo sapiens, read-out: pA2 (converted)
Cavia porcellus [7] = species: Cavia porcellus; test: Inhibition of histamine-induced contraction of guinea pig ileum in a concentration-dependent fashion; assay type: functional; settings: read-out: pA2 (converted)
Substance-P receptor [8] = target: Substance-P receptor (Homo sapiens, UniProt P25103); test: Compound was evaluated for the antagonistic activity against NK1 receptor; assay type: functional
Sequence of Substance-P receptor (Homo sapiens, UniProt P25103) (P25103 whole entry): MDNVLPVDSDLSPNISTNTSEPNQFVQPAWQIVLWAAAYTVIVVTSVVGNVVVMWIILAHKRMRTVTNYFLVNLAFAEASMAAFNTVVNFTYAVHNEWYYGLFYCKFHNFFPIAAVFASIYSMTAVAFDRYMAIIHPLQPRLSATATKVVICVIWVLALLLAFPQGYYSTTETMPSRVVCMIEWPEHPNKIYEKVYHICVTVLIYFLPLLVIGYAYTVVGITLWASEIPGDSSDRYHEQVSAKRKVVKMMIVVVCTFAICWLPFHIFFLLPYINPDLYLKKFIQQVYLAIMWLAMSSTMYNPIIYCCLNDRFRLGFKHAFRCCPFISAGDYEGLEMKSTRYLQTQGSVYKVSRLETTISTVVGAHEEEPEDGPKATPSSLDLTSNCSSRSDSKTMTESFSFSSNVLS

Histamine H1 receptor [9] = target: T1, Histamine H1 receptor; test: Compound was evaluated for the antagonistic activity against H1 receptor; assay type: functional
Substance-K receptor = target: T2, Substance-K receptor (Homo sapiens, UniProt P21452); test: Compound was evaluated for the antagonistic activity against Tachykinin receptor 2; assay type: functional
T2 sequence (P21452 whole entry): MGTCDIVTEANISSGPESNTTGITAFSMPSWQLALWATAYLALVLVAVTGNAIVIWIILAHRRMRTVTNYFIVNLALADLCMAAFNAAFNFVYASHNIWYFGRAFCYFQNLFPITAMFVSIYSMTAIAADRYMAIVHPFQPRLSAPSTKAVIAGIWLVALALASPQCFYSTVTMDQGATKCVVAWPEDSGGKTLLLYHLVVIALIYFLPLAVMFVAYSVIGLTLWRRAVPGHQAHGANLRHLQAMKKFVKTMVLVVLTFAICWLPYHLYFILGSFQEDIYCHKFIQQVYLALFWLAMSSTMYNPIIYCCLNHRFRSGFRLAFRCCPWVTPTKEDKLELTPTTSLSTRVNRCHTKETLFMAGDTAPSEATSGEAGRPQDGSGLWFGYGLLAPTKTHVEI

T1 sequence (P35367 whole entry): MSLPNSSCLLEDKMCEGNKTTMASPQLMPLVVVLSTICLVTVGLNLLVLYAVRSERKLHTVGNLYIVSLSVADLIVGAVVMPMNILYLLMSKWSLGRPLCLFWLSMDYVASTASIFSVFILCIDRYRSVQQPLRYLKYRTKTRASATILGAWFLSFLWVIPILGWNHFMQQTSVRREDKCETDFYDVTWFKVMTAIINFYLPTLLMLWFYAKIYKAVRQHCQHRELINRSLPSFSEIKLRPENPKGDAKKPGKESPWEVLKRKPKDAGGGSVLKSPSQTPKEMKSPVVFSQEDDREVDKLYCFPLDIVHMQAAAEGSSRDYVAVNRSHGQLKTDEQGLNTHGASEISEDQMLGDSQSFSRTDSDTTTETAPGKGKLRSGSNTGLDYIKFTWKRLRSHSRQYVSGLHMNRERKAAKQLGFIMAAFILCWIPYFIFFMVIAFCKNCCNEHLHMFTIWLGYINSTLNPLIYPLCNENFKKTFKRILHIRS
Sequence of Substance-P receptor (Cavia porcellus, UniProt P30547) (P30547 whole entry): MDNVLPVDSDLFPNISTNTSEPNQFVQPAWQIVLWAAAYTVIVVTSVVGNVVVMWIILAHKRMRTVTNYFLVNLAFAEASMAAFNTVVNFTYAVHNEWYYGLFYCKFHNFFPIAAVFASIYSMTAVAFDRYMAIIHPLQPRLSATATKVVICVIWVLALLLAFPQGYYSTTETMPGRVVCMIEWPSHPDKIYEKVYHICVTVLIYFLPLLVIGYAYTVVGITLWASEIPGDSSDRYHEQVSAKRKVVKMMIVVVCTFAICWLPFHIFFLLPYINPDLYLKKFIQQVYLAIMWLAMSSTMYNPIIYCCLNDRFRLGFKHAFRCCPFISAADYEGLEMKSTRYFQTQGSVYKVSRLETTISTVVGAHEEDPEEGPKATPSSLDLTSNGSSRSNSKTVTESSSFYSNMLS

COc1cc(C(=O)N2CCC(CCN3CCC(C(=O)c4nc5ccccc5[nH]4)CC3)(c3ccccc3)C2)cc(OC)c1OC (centres undefined)
IC50 (Substance-P receptor [1]): 36 nM

COc1cc(C(=O)N2CCC(CCN3CCC(C(=O)c4nc5ccccc5n4Cc4ccc(F)cc4)CC3)(c3ccc(Cl)c(Cl)c3)C2)cc(OC)c1OC (centres undefined)
IC50 (Substance-P receptor [1]): 92 nM
IC50 (Histamine H1 receptor [2]): 124 nM

COc1cc(C(=O)N2CCC(CCN3CCC(C(=O)c4nc5ccccc5n4CCOCc4ccco4)CC3)(c3ccccc3)C2)cc(OC)c1OC (centres undefined)
IC50 (Substance-P receptor [1]): 12 nM
IC50 (Histamine H1 receptor [2]): 446 nM

COc1cc(C(=O)N2CCC(CCN3CCC(C(=O)c4nc5ccccc5n4CCCOc4ccccc4C(=O)O)CC3)(c3ccccc3)C2)cc(OC)c1OC (centres undefined)
IC50 (Substance-P receptor [1]): 27 nM
IC50 (Histamine H1 receptor [2]): 9450 nM

COc1ccc(C2(CCN3CCC(C(=O)c4nc5ccccc5n4Cc4ccc(F)cc4)CC3)CCN(C(=O)c3cc(OC)c(OC)c(OC)c3)C2)cc1OC (centres undefined)
ED50 (Cavia porcellus [3]): 18.9 mg/kg
logP [4]: 4.72
solubility [5]: < 0.1 µg/mL
IC50 (Histamine H1 receptor [2]): 309 nM
Kb [6]: 66.1 nM
Kb (Cavia porcellus [7]): 30.2 nM

COc1cc(C(=O)N2CCC(CCN3CCC(C(=O)c4nc5ccccc5n4Cc4ccc(F)cc4)CC3)(c3ccccc3)C2)cc(OC)c1OC (centres undefined)
IC50 (Substance-P receptor [1]): 34 nM

COc1cc(C(=O)N2CCC(CCN3CCC(C(=O)c4nc5ccccc5n4Cc4cccnc4)CC3)(c3ccccc3)C2)cc(OC)c1OC (centres undefined)
IC50 (Substance-P receptor [1]): 27 nM

COC(=O)c1ccc(Cn2c(C(=O)C3CCN(CCC4(c5ccccc5)CCN(C(=O)c5cc(OC)c(OC)c(OC)c5)C4)CC3)nc3ccccc32)cc1 (centres undefined)
IC50 (Substance-P receptor [1]): 23 nM
IC50 (Histamine H1 receptor [2]): 1210 nM

COc1cc(C(=O)N2CCC(CCN3CCC(C(=O)c4nc5ccccc5n4Cc4ccncc4)CC3)(c3ccccc3)C2)cc(OC)c1OC (centres undefined)
IC50 (Substance-P receptor [1]): 37 nM

COc1ccc(C2(CCN3CCC(C(=O)c4nc5ccccc5n4Cc4ccccn4)CC3)CCN(C(=O)c3cc(OC)c(OC)c(OC)c3)C2)cc1 (centres undefined)
IC50 (Substance-P receptor [1]): 42 nM

CCOCCn1c(C(=O)C2CCN(CCC3(c4ccccc4)CCN(C(=O)c4cc(OC)c(OC)c(OC)c4)C3)CC2)nc2ccccc21 (centres undefined)
IC50 (Substance-P receptor [1]): 26 nM

COC(=O)c1ccccc1OCCCn1c(C(=O)C2CCN(CCC3(c4ccccc4)CCN(C(=O)c4cc(OC)c(OC)c(OC)c4)C3)CC2)nc2ccccc21 (centres undefined)
IC50 (Substance-P receptor [1]): 16 nM
IC50 (Histamine H1 receptor [2]): 994 nM

COc1cc(C(=O)N2CCC(CCN3CCC(C(=O)c4nc5ccccc5n4Cc4ccc(C(=O)O)cc4)CC3)(c3ccccc3)C2)cc(OC)c1OC (centres undefined)
IC50 (Substance-P receptor [1]): 36 nM
IC50 (Histamine H1 receptor [2]): 3420 nM

COc1cc(C(=O)N2CC[C@](CCN3CCC(C(N)=O)(c4ccccc4)CC3)(c3ccc(Cl)c(Cl)c3)C2)cc(OC)c1OC
IC50 (Substance-P receptor [8]): 3 nM
IC50 (Histamine H1 receptor [9]): 10000 nM
IC50 (Substance-K receptor): 8 nM

COc1cc(C(=O)N2CCC(CCN3CCC(C(=O)c4nc5ccccc5n4Cc4ccccn4)CC3)(c3ccc(Cl)c(Cl)c3)C2)cc(OC)c1OC (centres undefined)
IC50 (Substance-P receptor [1]): 32 nM

COc1cc(C(=O)N2CCC(CCN3CCC(C(=O)c4nc5ccccc5n4Cc4ccc(F)cc4)CC3)(c3ccc(C(F)(F)F)cc3)C2)cc(OC)c1OC (centres undefined)
IC50 (Substance-P receptor [1]): 117 nM

CC(C)(C)c1ccc(C(O)CCCN2CCC(C(O)(c3ccccc3)c3ccccc3)CC2)cc1 (centres undefined) [TERFENADINE]
IC50 (Substance-P receptor [1]): > 10000 nM

COc1ccc(CCN2CCC(C(=O)c3nc4ccccc4n3Cc3ccc(F)cc3)CC2)cc1
IC50 (Substance-P receptor [8]): 5200 nM
IC50 (Substance-K receptor): 3390 nM

COc1cc(C(=O)N2CCC(CCN3CCC(C(=O)c4nc5ccccc5n4Cc4ccccn4)CC3)(c3ccccc3)C2)cc(OC)c1OC (centres undefined)
ED50 (Cavia porcellus [3]): 10.3 mg/kg
logP [4]: 3.22
IC50 (Substance-P receptor [1]): 27 nM
solubility [5]: 38 µg/mL (≈ 55.2 µM)

COc1cc(C(=O)N2CCC(CCN3CCC(C(=O)c4nc5ccccc5n4Cc4ccco4)CC3)(c3ccccc3)C2)cc(OC)c1OC (centres undefined)
IC50 (Substance-P receptor [1]): 21 nM

COc1cc(C(=O)N2CCC(CCN3CCC(C(=O)c4nc5ccccc5n4Cc4ccc(F)cc4)CC3)(c3ccc(F)cc3F)C2)cc(OC)c1OC (centres undefined)
IC50 (Substance-P receptor [1]): 296 nM

COc1ccccc1CN[C@H]1C2CCN(CC2)[C@H]1C(c1ccccc1)c1ccccc1 [CP-96345]
IC50 (Histamine H1 receptor [2]): ~10000 nM
